Earlier results as cited in patent publication US7022337B2 (Shire Laboratories, Inc., priority 2002, dated 2006).

Conditions: prolonged treatment, 300 to 400 mg per day

CC(C)OC(=O)C(C)(C)Oc1ccc(C(=O)c2ccc(Cl)cc2)cc1 [Fenofibrate, 2-[4-(4-Chlorobenzoyl)phenoxy]-2-methylpropanoic acid 1-methylethyl ester]
Reduction in the levels of triglycerides: 40 to 50% | Reduction in total cholesterol: 20 to 25%
